How the values were obtained:
PARP [1] = biological target: T1, PARP (Homo sapiens, UniProt P09874); experiment: Enzymatic Assay 1: HT F Homogeneous PARP Inhibition Assay of cleaved compounds; assay type: biochemical; set-up: purchased Trevigen #4690-096-K (Assay 1); #4676-096-K (Assay 2)
PARP [2] = biological target: T1, PARP; experiment: Enzymatic Assay 2: HT Universal Chemiluminescent PARP Assay of cleaved compounds;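 note: PARP reaction with activated DNA run 1 h at room temperature, product detected via streptavidin-HRP and luminescence endpoint reading on a plate reader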
DLD-1 BRCA2−/− cells = experiment: Growth delay assay; assay type: cell-based, Human; conditions: pH 7.4, BRCA (−/−) DLD-1, 96 h
Method: Cells were plated in 96 well black walled-clear bottom plates (Griener), DLD-1 WT cells at 2500 cells per well, DLD-1 BRCA2−/− at 5000 cells per well, in growth media containing 10% FBS. Cells were allowed to adhere at room temperature for 60 minutes before returning to a 37 C, 5% CO2 incubator. After 24 hours, media was removed and replaced with fresh growth media containing various drug concentrations. Each drug concentration was added in triplicate. Non-drug treated controls contained growth media only. Cells were returned to the incubator. Ninety-six hours after addition of drug, cells were fixed with 4% paraformaldehyde for 20 minutes and stained with Hoechst at 1 ug/mL. The plates were imaged on a Cytation 5 auto imager (BioTek) and cells were counted using CellProfiler (http://cellprofiler.org). The percent cell growth delay was calculated and data plotted using GraphPad Prism.

[3] = read-out: IC50 Enzymatic Assay 2, Examples cleaved per Example A (crude cleavage solution), R^8H starting materials as such

T1 sequence (P09874 whole entry): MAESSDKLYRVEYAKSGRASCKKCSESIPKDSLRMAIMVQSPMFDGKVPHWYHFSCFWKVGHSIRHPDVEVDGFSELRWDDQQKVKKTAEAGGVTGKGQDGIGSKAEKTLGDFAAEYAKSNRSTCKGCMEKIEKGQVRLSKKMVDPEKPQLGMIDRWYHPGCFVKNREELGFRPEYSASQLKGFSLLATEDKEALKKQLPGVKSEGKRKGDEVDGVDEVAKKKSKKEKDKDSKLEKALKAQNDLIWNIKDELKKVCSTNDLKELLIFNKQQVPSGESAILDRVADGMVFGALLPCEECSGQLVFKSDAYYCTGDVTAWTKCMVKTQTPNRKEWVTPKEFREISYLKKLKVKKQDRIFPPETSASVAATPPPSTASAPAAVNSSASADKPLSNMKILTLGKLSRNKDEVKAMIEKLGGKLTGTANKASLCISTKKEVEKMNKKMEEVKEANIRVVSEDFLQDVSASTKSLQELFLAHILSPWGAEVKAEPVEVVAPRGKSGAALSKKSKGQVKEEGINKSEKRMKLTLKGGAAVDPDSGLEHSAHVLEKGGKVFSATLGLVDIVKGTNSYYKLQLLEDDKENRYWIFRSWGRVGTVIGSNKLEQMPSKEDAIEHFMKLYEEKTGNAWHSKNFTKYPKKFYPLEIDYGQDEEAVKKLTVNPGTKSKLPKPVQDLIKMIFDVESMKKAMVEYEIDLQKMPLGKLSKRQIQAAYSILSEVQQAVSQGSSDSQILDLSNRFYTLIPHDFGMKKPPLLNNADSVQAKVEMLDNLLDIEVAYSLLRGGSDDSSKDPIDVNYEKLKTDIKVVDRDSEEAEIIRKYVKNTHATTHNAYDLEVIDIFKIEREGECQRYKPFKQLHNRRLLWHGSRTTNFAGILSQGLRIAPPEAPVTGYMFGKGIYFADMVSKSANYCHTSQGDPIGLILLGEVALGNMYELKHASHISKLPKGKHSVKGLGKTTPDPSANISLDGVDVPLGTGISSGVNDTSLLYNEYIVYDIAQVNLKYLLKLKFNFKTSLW

| SMILES | IC50 (PARP [1]; read-out: IC50 Enzymatic Assay 1; Examples cleaved per Example A (crude cleavage solution); R^8H starting materials as such; 1 uM NAD) [nM] | IC50 (PARP [2]; [3]) [nM] | IC50 (DLD-1 BRCA2−/− cells) [nM] | IC50 (PARP [1]; Examples cleaved per Example A (crude cleavage solution); R^8H starting materials as such; 1 uM NAD; read-out: IC50 Enzymatic Assay 1) [nM] | IC50 (PARP [2]) [nM] |
| --- | --- | --- | --- | --- | --- |
| CC(C)C[C@H](NC(=O)[C@H](Cc1ccc(O)cc1)NC(=O)[C@H](C)NC(=O)[C@H](CCCNC(=N)N)NC(=O)[C@H](Cc1c[nH]c2ccccc12)NC(=O)[C@@H]1CCCN1C(=O)[C@H](CC(N)=O)NC(=O)[C@H](CCC(N)=O)NC(=O)[C@H](CC(=O)O)NC(=O)[C@H](CC(=O)O)NC(=O)[C@H](C)N)C(=O)N[C@@H](CC(=O)O)C(=O)N[C@@H](CC(C)C)C(=O)N[C@@H](CC(C)C)C(=O)N[C@@H](Cc1ccccc1)C(=O)N1CCC[C@H]1C(=O)N[C@H](C(=O)N[C@@H](CC(=O)O)C(=O)N[C@H](C(=O)N[C@@H](CC(C)C)C(=O)N[C@@H](CC(C)C)C(=O)N[C@@H](CC(C)C)C(=O)N[C@@H](CC(=O)O)C(=O)N[C@@H](CC(C)C)C(=O)N[C@@H](CC(C)C)C(=O)N[C@@H](Cc1c[nH]c2ccccc12)C(=O)N[C@@H](CC(=O)O)C(=O)N[C@@H](C)C(=O)N[C@@H](CC(=O)O)C(=O)N[C@@H](CCC(=O)O)C(=O)N[C@@H](CSS[C@H](C)COC(=O)OCc1ccc(-c2nc3c(C(N)=O)cccc3[nH]2)cc1)C(=O)NCC(=O)O)[C@@H](C)O)[C@@H](C)O [Example 7] | 111 | 6.45 |  |  |  |
| CC(C)C[C@H](NC(=O)[C@H](Cc1ccc(O)cc1)NC(=O)[C@H](C)NC(=O)[C@H](CCCNC(=N)N)NC(=O)[C@H](Cc1c[nH]c2ccccc12)NC(=O)[C@@H]1CCCN1C(=O)[C@H](CC(N)=O)NC(=O)[C@H](CCC(N)=O)NC(=O)[C@H](CC(=O)O)NC(=O)[C@H](CC(=O)O)NC(=O)[C@H](C)N)C(=O)N[C@@H](CC(=O)O)C(=O)N[C@@H](CC(C)C)C(=O)N[C@@H](CC(C)C)C(=O)N[C@@H](Cc1ccccc1)C(=O)N1CCC[C@H]1C(=O)N[C@H](C(=O)N[C@@H](CC(=O)O)C(=O)N[C@H](C(=O)N[C@@H](CC(C)C)C(=O)N[C@@H](CC(C)C)C(=O)N[C@@H](CC(C)C)C(=O)N[C@@H](CC(=O)O)C(=O)N[C@@H](CC(C)C)C(=O)N[C@@H](CC(C)C)C(=O)N[C@@H](Cc1c[nH]c2ccccc12)C(=O)N[C@@H](CC(=O)O)C(=O)N[C@@H](C)C(=O)N[C@@H](CC(=O)O)C(=O)N[C@@H](CCC(=O)O)C(=O)N[C@@H](CSS[C@H](C)COC(=O)NCN1c2cc(F)cc3c(=O)[nH]nc(c23)[C@H](c2ncnn2C)[C@H]1c1ccc(F)cc1)C(=O)NCC(=O)O)[C@@H](C)O)[C@@H](C)O [Example 41] |  | 1.9 | 43 |  |  |
| CC(C)C[C@H](NC(=O)[C@H](Cc1ccc(O)cc1)NC(=O)[C@H](C)NC(=O)[C@H](CCCNC(=N)N)NC(=O)[C@H](Cc1c[nH]c2ccccc12)NC(=O)[C@@H]1CCCN1C(=O)[C@H](CC(N)=O)NC(=O)[C@H](CCC(N)=O)NC(=O)[C@H](CC(=O)O)NC(=O)[C@H](CC(=O)O)NC(=O)[C@H](C)N)C(=O)N[C@@H](CC(=O)O)C(=O)N[C@@H](CC(C)C)C(=O)N[C@@H](CC(C)C)C(=O)N[C@@H](Cc1ccccc1)C(=O)N1CCC[C@H]1C(=O)N[C@H](C(=O)N[C@@H](CC(=O)O)C(=O)N[C@H](C(=O)N[C@@H](CC(C)C)C(=O)N[C@@H](CC(C)C)C(=O)N[C@@H](CC(C)C)C(=O)N[C@@H](CC(=O)O)C(=O)N[C@@H](CC(C)C)C(=O)N[C@@H](CC(C)C)C(=O)N[C@@H](Cc1c[nH]c2ccccc12)C(=O)N[C@@H](CSS[C@@H](C)COC(=O)NCN1c2cc(F)cc3c(=O)[nH]nc(c23)[C@H](c2ncnn2C)[C@H]1c1ccc(F)cc1)C(=O)NCC(=O)O)[C@@H](C)O)[C@@H](C)O [Example 42] |  | 1.4 | 53 |  |  |
| NC(=O)c1cccc2[nH]c(-c3ccc(CO)cc3)nc12 [R^8H-1, 2-[4-(hydroxymethyl)phenyl]-1H-benzimidazole-4-carboxamide, reference compound] |  |  |  | 96.8 | 6.4 |

Source: patent US12427157B2, “Methods for treatment of diseases involving acidic or hypoxic diseased tissues” (Cybrexa 1, Inc., priority 2018, dated 2025)
